# According to patent publication US11180483B2, “Substituted reverse pyrimidine Bmi-1 inhibitors” (PTC Therapeutics, Inc., priority 2012, dated 2021):
# Tests used:
# Bmi-1 = experiment: Sandwich ELISA Assay (Bmi-1 ELISA) in HT-1080 cells; format: cell-based
# Outline: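 HT-1080 cells exposed to compound in 0.5% final DMSO for 40-48 h at 37 °C, then lysed. Bmi-1 was quantified by sandwich ELISA: mouse monoclonal capture, rabbit anti-Bmi-1 detection, HRP anti-rabbit and TMB. Read at OD450 (OD570 reference) against a recombinant GST-Bmi-1 standard curve (0-8000 pg/mL).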
SMILES,melting point [°C],EC50 (Bmi-1) [nM]
"COCc1nc2ccccc2n1-c1nc(N)cc(Nc2ccc(C(F)(F)F)cc2)n1 [Cpd 150, 2-[2-(methoxymethyl)-1H-benzimidazol-1-yl]-N-[4-(trifluoromethyl]phenyl]pyrimidine-4,6-diamine]",212 to 213,10 to 100
"CCc1nc2ccccc2n1-c1nc(N)cc(Nc2ccc(C(F)(F)F)cc2)n1 [Cpd 153, 2-(2-ethyl-1H-benzimidazol-1-yl)-N-[4-(trifluoromethyl]phenyl]pyrimidine-4,6-diamine]",183 to 185,10 to 100
"COc1ccc(Nc2ccnc(-c3c(C(F)(F)F)nc4cnccn34)n2)cc1 [Cpd 45, N-(4-methoxyphenyl)-2-[2-(trifluoromethyl)imidazo[1,2-a]pyrazin-3-yl]pyrimidin-4-amine]",–,100 to 3000
"Cc1nc2ccccn2c1-c1nc(N)c(F)c(Nc2ccc(OC(F)F)cc2)n1 [Cpd 170, N-[4-(difluoromethoxy)phenyl]-5-fluoro-2-(2-methylimidazo[1,2-a]pyridin-3-yl)pyrimidine-4,6-diamine]",–,100 to 3000
"Cc1nc2ccccn2c1-c1nc(N)c(F)c(Nc2ccc(C(F)(F)F)cc2)n1 [Cpd 169, 5-fluoro-2-(2-methylimidazo[1,2-a]pyridin-3-yl)-N-[4-(trifluoromethyl)phenyl]pyrimidine-4,6-diamine]",–,100 to 3000
"Cc1nc2ncccc2n1-c1nc(N)c(F)c(Nc2ccc(OC(F)F)c(F)c2)n1 [Cpd 139, N-[4-(difluoromethoxy)-3-fluorophenyl]-5-fluoro-2-(2-methyl-1H-imidazo[4,5-b]pyridin-1-yl)pyrimidine-4,6-diamine]",–,100 to 3000
"Nc1cc(Nc2ccc(OC(F)F)cc2)nc(-n2c(C3CC3)nc3ncc(F)cc32)n1 [Cpd 103, 2-(2-cyclopropyl-6-fluoro-1H-imidazo[4,5-b]pyridin-1-yl)-N-[4-(difluoromethoxy)phenyl]pyrimidine-4,6-diamine]",–,10 to 100
"COc1ccc(Nc2nc(-n3c(C)nc4ccc(C#N)cc43)nc(N)c2F)cc1 [Cpd 225, 1-{4-amino-5-fluoro-6-[(4-methoxyphenyl)amino]pyrimidin-2-yl}-2-methyl-1H-benzimidazole-6-carbonitrile]",–,10 to 100
"CCc1nc2ccccc2n1-c1nc(N)c(F)c(Nc2ccc(OC)cc2)n1 [Cpd 271, 2-(2-ethyl-1H-benzimidazol-1-yl)-5-fluoro-N-(4-methoxyphenyl)pyrimidine-4,6-diamine]",–,1 to 10
"CCc1nc2ccccc2n1-c1nc(N)c(Cl)c(Nc2ccc(C(F)(F)F)cc2)n1 [Cpd 167, 5-chloro-2-(2-ethyl-1H-benzimidazol-1-yl)-N-[4-(trifluoromethyl)phenyl]pyrimidine-4,6-diamine]",–,10 to 100
"CCc1nc2ccc(F)cc2n1-c1nc(N)c(F)c(Nc2ccc(OC(F)F)cc2)n1 [Cpd 165, N-[4-(difluoromethoxy)phenyl]-2-(2-ethyl-6-fluoro-1H-benzimidazol-1-yl)-5-fluoropyrimidine-4,6-diamine]",–,1 to 10
"Nc1nc(-c2c(C3CC3)nn3ccccc23)nc(Nc2ccc(OC(F)F)cc2)c1F [Cpd 180, 2-(2-cyclopropylpyrazolo[1,5-a]pyridin-3-yl)-N-[4-(difluoromethoxy)phenyl]-5-fluoropyrimidine-4,6-diamine]",–,100 to 3000
"Nc1cc(Nc2ccc(OC(F)F)cc2)nc(-c2c(C(F)(F)F)nc3ccccn23)n1 [Cpd 65, N-[4-(difluoromethoxy)phenyl]-2-[2-(trifluoromethyl)imidazo[1,2-a]pyridin-3-yl]pyrimidine-4,6-diamine]",–,10 to 100

# The remaining lines, values ahead:
melting point [°C],EC50 (Bmi-1) [nM],SMILES
186 to 188,10 to 100,"Nc1cc(Nc2ccc(OC(F)F)c(F)c2)nc(-n2c(C3CC3)nc3ccc(F)cc32)n1 [Cpd 78, 2-(2-cyclopropyl-6-fluoro-1H-benzimidazol-1-yl)-N-[4-(difluoromethoxy)-3-fluorophenyl]pyrimidine-4,6-diamine]"
201 to 203,10 to 100,"CCc1nc2ccc(F)cc2n1-c1nc(N)cc(Nc2ccc(C(F)(F)F)cc2)n1 [Cpd 81, 2-(2-ethyl-6-fluoro-1H-benzimidazol-1-yl)-N-[4-(trifluoromethyl)phenyl]pyrimidine-4,6-diamine]"
212 to 215,100 to 3000,"Cc1nc2ccc(F)cc2n1-c1nc(N)cc(Nc2ccc3c(c2)OC(F)(F)O3)n1 [Cpd 269, N-(2,2-difluoro-1,3-benzodioxol-5-yl)-2-(6-fluoro-2-methyl-1H-benzimidazol-1-yl)pyrimidine-4,6-diamine]"
–,1 to 10,"Cc1ccc(Nc2nc(-n3c(C)nc4ccc(F)cc43)nc(N)c2F)cc1 [Cpd 184, 5-fluoro-2-(6-fluoro-2-methyl-1H-benzimidazol-1-yl)-N-(4-methylphenyl)pyrimidine-4,6-diamine]"
–,10 to 100,"Cc1nc2cc(F)ccc2n1-c1nc(N)c(F)c(Nc2ccc(OC(F)F)c(F)c2)n1 [Cpd 112, N-[4-(difluoromethoxy)-3-fluorophenyl]-5-fluoro-2-(5-fluoro-2-methyl-1H-benzimidazol-1-yl)pyrimidine-4,6-diamine]"
–,10 to 100,"Cc1nc2ccc(Cl)cc2n1-c1nc(N)cc(Nc2ccc(C(F)(F)F)cc2)n1 [Cpd 93, 2-(6-chloro-2-methyl-1H-benzimidazol-1-yl)-N-[4-(trifluoromethyl)phenyl]pyrimidine-4,6-diamine]"
–,10 to 100,"Cc1nc2cc(F)c(F)cc2n1-c1nc(N)cc(Nc2ccc(OC(F)F)cc2)n1 [Cpd 102, N-[4-(difluoromethoxy)phenyl]-2-(5,6-difluoro-2-methyl-1H-benzimidazol-1-yl)pyrimidine-4,6-diamine]"
–,100 to 3000,"Cc1nc2c(F)cc(F)cc2n1-c1nc(N)cc(Nc2ccc(C(F)(F)F)c(F)c2)n1 [Cpd 89, 2-(4,6-difluoro-2-methyl-1H-benzimidazol-1-yl)-N-[3-fluoro-4-(trifluoromethyl)phenyl]pyrimidine-4,6-diamine]"
–,100 to 3000,"Cc1nc2ccccc2n1-c1nc(N)cc(Nc2ccc(OC(F)(F)F)cc2)n1 [Cpd 221, 2-(2-methyl-1H-benzimidazol-1-yl)-N-[4-(trifluoromethoxy)phenyl]pyrimidine-4,6-diamine]"
–,10 to 100,"Cc1nc2ccccc2n1-c1nc(N)cc(Nc2ccc(C(F)(F)F)c(F)c2)n1 [Cpd 80, N-[3-fluoro-4-(trifluoromethyl)phenyl]-2-(2-methyl-1H-benzimidazol-1-yl)pyrimidine-4,6-diamine]"
–,1 to 10,"Cc1ccc(Nc2cc(N)nc(-n3c(C)nc4ccc(F)cc43)n2)cc1 [Cpd 264, 2-(6-fluoro-2-methyl-1H-benzimidazol-1-yl)-N-(4-methylphenyl)pyrimidine-4,6-diamine]"
–,10 to 100,"Cc1nc2cc(F)ccc2n1-c1nc(N)c(F)c(Nc2ccc(OC(F)F)cc2)n1 [Cpd 113, N-[4-(difluoromethoxy)phenyl]-5-fluoro-2-(5-fluoro-2-methyl-1H-benzimidazol-1-yl)pyrimidine-4,6-diamine]"
–,100 to 3000,"Cc1nc2ccccc2n1-c1nc(N)cc(Nc2ccc(C#N)cc2)n1 [Cpd 210, 4-{[6-amino-2-(2-methyl-1H-benzimidazol-1-yl)pyrimidin-4-yl]amino}benzonitrile]"
–,100 to 3000,"Cc1nc2cc(F)c(F)cc2n1-c1nc(N)cc(Nc2ccc(C(F)(F)F)c(F)c2)n1 [Cpd 74, 2-(5,6-difluoro-2-methyl-1H-benzimidazol-1-yl)-N-[3-fluoro-4-(trifluoromethyl)phenyl]pyrimidine-4,6-diamine]"
